Experimental data: PubChem BioAssay (NCI)
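48-hour exposure; five concentrations; linearly interpolated endpoints. TGI: total growth inhibition.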

What was measured:
Assay in all cases: NCI anticancer screen, dose series, 48 h
SW-620 colon = tested on: SW-620 colon
NCI-H23 lung = tested on: NCI-H23 lung
HOP-92 NSCLC = tested on: HOP-92 NSCLC
SK-MEL-2 melanoma = tested on: SK-MEL-2 melanoma
ACHN renal = tested on: ACHN renal
EKVX NSCLC = tested on: EKVX NSCLC
NCI-H522 lung = tested on: NCI-H522 lung
K-562 leukemia = tested on: K-562 leukemia
SK-MEL-28 melanoma = tested on: SK-MEL-28 melanoma
MDA-MB-435 = tested on: MDA-MB-435
SK-MEL-5 melanoma = tested on: SK-MEL-5 melanoma
IGROV1 ovarian = tested on: IGROV1 ovarian
CCRF-CEM leukemia = tested on: CCRF-CEM leukemia
A549 NSCLC = tested on: A549 NSCLC
SNB-75 CNS = tested on: SNB-75 CNS
HS 578T breast = tested on: HS 578T breast
OVCAR-5 ovarian = tested on: OVCAR-5 ovarian
A498 renal = tested on: A498 renal
M14 melanoma = tested on: M14 melanoma
MDA-MB-231 breast = tested on: MDA-MB-231 breast
HT29 colon = tested on: HT29 colon
HCT-15 colon = tested on: HCT-15 colon
SNB-19 CNS = tested on: SNB-19 CNS
SN12C renal = tested on: SN12C renal
LOX IMVI melanoma = tested on: LOX IMVI melanoma
HOP-62 NSCLC = tested on: HOP-62 NSCLC
OVCAR-3 ovarian = tested on: OVCAR-3 ovarian
PC-3 prostate = tested on: PC-3 prostate
UO-31 renal = tested on: UO-31 renal
SF-268 CNS = tested on: SF-268 CNS
TK-10 renal = tested on: TK-10 renal
SF-295 CNS = tested on: SF-295 CNS
HCT-116 colon = tested on: HCT-116 colon
UACC-62 melanoma = tested on: UACC-62 melanoma
OVCAR-4 ovarian = tested on: OVCAR-4 ovarian
KM12 colon = tested on: KM12 colon
BT-549 breast = tested on: BT-549 breast
HL-60(TB) leukemia = tested on: HL-60(TB) leukemia
RXF 393 renal = tested on: RXF 393 renal
NCI-H226 lung = tested on: NCI-H226 lung
MOLT-4 leukemia = tested on: MOLT-4 leukemia
786-0 renal = tested on: 786-0 renal
MDA-N = tested on: MDA-N
COLO 205 colon = tested on: COLO 205 colon
CAKI-1 renal = tested on: CAKI-1 renal
SR leukemia = tested on: SR leukemia
UACC-257 melanoma = tested on: UACC-257 melanoma
DU-145 prostate = tested on: DU-145 prostate
T-47D breast = tested on: T-47D breast
SK-OV-3 ovarian = tested on: SK-OV-3 ovarian
HCC-2998 colon = tested on: HCC-2998 colon
U251 CNS = tested on: U251 CNS
NCI-H460 lung = tested on: NCI-H460 lung
RPMI-8226 leukemia = tested on: RPMI-8226 leukemia
OVCAR-8 ovarian = tested on: OVCAR-8 ovarian
NCI/ADR-RES ovarian = tested on: NCI/ADR-RES ovarian
SF-539 CNS = tested on: SF-539 CNS
MCF7 breast = tested on: MCF7 breast

## O=C1OC(=O)C2=C1C(c1cccs1)C=C(c1cccnc1)N2c1ccncc1 (stereo not given)
SW-620 colon
  TGI: 58.1 µM
NCI-H23 lung
  TGI: 34.7 µM
HOP-92 NSCLC
  TGI: 27.1 µM
SK-MEL-2 melanoma
  TGI: 32.5 µM
ACHN renal
  TGI: 30.1 µM
EKVX NSCLC
  TGI: 31.4 µM
NCI-H522 lung
  TGI: 29.4 µM
K-562 leukemia
  TGI: 84.6 µM
SK-MEL-28 melanoma
  TGI: 75.2 µM
MDA-MB-435
  TGI: 49.9 µM
SK-MEL-5 melanoma
  TGI: 40.2 µM
IGROV1 ovarian
  TGI: 29.3 µM
CCRF-CEM leukemia
  TGI: 50 µM
A549 NSCLC
  TGI: 40.8 µM
SNB-75 CNS
  TGI: 35.8 µM
HS 578T breast
  TGI: 71.4 µM
OVCAR-5 ovarian
  TGI: 28.5 µM
A498 renal
  TGI: 51.5 µM
M14 melanoma
  TGI: 27 µM
MDA-MB-231 breast
  TGI: 39.6 µM
HT29 colon
  TGI: 30.4 µM
HCT-15 colon
  TGI: 30.1 µM
SNB-19 CNS
  TGI: 38.9 µM
SN12C renal
  TGI: 32.9 µM
LOX IMVI melanoma
  TGI: 27 µM
HOP-62 NSCLC
  TGI: 41.7 µM
OVCAR-3 ovarian
  TGI: 29.3 µM
PC-3 prostate
  TGI: 29.5 µM
UO-31 renal
  TGI: 30.3 µM
SF-268 CNS
  TGI: 48.2 µM
TK-10 renal
  TGI: 31.6 µM
SF-295 CNS
  TGI: 35.3 µM
HCT-116 colon
  TGI: 27.3 µM
UACC-62 melanoma
  TGI: 37.3 µM
OVCAR-4 ovarian
  TGI: 36 µM
KM12 colon
  TGI: 26.1 µM
BT-549 breast
  TGI: 36.1 µM
HL-60(TB) leukemia
  TGI: 64.4 µM
RXF 393 renal
  TGI: 34.5 µM
NCI-H226 lung
  TGI: 56.8 µM
MOLT-4 leukemia
  TGI: 73.8 µM
786-0 renal
  TGI: 32.9 µM
MDA-N
  TGI: 33.9 µM
COLO 205 colon
  TGI: 31.8 µM
CAKI-1 renal
  TGI: 29.7 µM
SR leukemia
  TGI: 8.73 µM
UACC-257 melanoma
  TGI: 24.7 µM
DU-145 prostate
  TGI: 30.2 µM
T-47D breast
  TGI: 37 µM
SK-OV-3 ovarian
  TGI: 68.5 µM
HCC-2998 colon
  TGI: 27.1 µM
U251 CNS
  TGI: 35.4 µM
NCI-H460 lung
  TGI: 32.1 µM
RPMI-8226 leukemia
  TGI: 60.2 µM
OVCAR-8 ovarian
  TGI: 48.7 µM
NCI/ADR-RES ovarian
  TGI: 82.3 µM

## COc1cc(CCCl)c(CC2=NCCc3cc(OC)c(OC)cc32)cc1OC
SW-620 colon
  TGI: > 100 µM
NCI-H23 lung
  TGI: > 100 µM
HOP-92 NSCLC
  TGI: > 100 µM
SK-MEL-2 melanoma
  TGI: > 100 µM
ACHN renal
  TGI: > 100 µM
EKVX NSCLC
  TGI: > 100 µM
K-562 leukemia
  TGI: > 100 µM
SK-MEL-28 melanoma
  TGI: > 100 µM
MDA-MB-435
  TGI: > 100 µM
SF-539 CNS
  TGI: 57.7 µM
SK-MEL-5 melanoma
  TGI: > 100 µM
IGROV1 ovarian
  TGI: > 100 µM
CCRF-CEM leukemia
  TGI: > 100 µM
A549 NSCLC
  TGI: > 100 µM
SNB-75 CNS
  TGI: > 100 µM
HS 578T breast
  TGI: 80.7 µM
OVCAR-5 ovarian
  TGI: > 100 µM
M14 melanoma
  TGI: > 100 µM
MDA-MB-231 breast
  TGI: > 100 µM
HT29 colon
  TGI: > 100 µM
SNB-19 CNS
  TGI: > 100 µM
SN12C renal
  TGI: > 100 µM
LOX IMVI melanoma
  TGI: > 100 µM
HOP-62 NSCLC
  TGI: > 100 µM
OVCAR-3 ovarian
  TGI: > 100 µM
PC-3 prostate
  TGI: > 100 µM
UO-31 renal
  TGI: > 100 µM
SF-268 CNS
  TGI: > 100 µM
TK-10 renal
  TGI: > 100 µM
SF-295 CNS
  TGI: > 100 µM
HCT-116 colon
  TGI: > 100 µM
UACC-62 melanoma
  TGI: > 100 µM
OVCAR-4 ovarian
  TGI: > 100 µM
KM12 colon
  TGI: > 100 µM
BT-549 breast
  TGI: > 100 µM
HL-60(TB) leukemia
  TGI: > 100 µM
RXF 393 renal
  TGI: > 100 µM
NCI-H226 lung
  TGI: > 100 µM
MOLT-4 leukemia
  TGI: > 100 µM
MDA-N
  TGI: > 100 µM
COLO 205 colon
  TGI: > 100 µM
CAKI-1 renal
  TGI: > 100 µM
SR leukemia
  TGI: > 100 µM
UACC-257 melanoma
  TGI: > 100 µM
DU-145 prostate
  TGI: > 100 µM
T-47D breast
  TGI: > 100 µM
SK-OV-3 ovarian
  TGI: > 100 µM
HCC-2998 colon
  TGI: > 100 µM
U251 CNS
  TGI: > 100 µM
NCI-H460 lung
  TGI: > 100 µM
RPMI-8226 leukemia
  TGI: > 100 µM
MCF7 breast
  TGI: > 100 µM
OVCAR-8 ovarian
  TGI: > 100 µM
NCI/ADR-RES ovarian
  TGI: > 100 µM

## C=C1C/C(=C/C)C(=O)O[C@@H]2CCN3CC=C(COC(=O)[C@]1(C)O)[C@H]23
SW-620 colon
  TGI: > 100 µM
NCI-H23 lung
  TGI: > 100 µM
HOP-92 NSCLC
  TGI: > 100 µM
SK-MEL-2 melanoma
  TGI: > 100 µM
ACHN renal
  TGI: > 100 µM
EKVX NSCLC
  TGI: > 100 µM
NCI-H522 lung
  TGI: > 100 µM
K-562 leukemia
  TGI: > 100 µM
SK-MEL-28 melanoma
  TGI: > 100 µM
MDA-MB-435
  TGI: > 100 µM
SF-539 CNS
  TGI: > 100 µM
SK-MEL-5 melanoma
  TGI: > 100 µM
IGROV1 ovarian
  TGI: > 100 µM
CCRF-CEM leukemia
  TGI: > 100 µM
A549 NSCLC
  TGI: > 100 µM
SNB-75 CNS
  TGI: > 100 µM
HS 578T breast
  TGI: > 100 µM
OVCAR-5 ovarian
  TGI: > 100 µM
A498 renal
  TGI: > 100 µM
M14 melanoma
  TGI: > 100 µM
MDA-MB-231 breast
  TGI: > 100 µM
HT29 colon
  TGI: > 100 µM
HCT-15 colon
  TGI: > 100 µM
SNB-19 CNS
  TGI: > 100 µM
LOX IMVI melanoma
  TGI: > 100 µM
HOP-62 NSCLC
  TGI: > 100 µM
OVCAR-3 ovarian
  TGI: > 100 µM
PC-3 prostate
  TGI: > 100 µM
UO-31 renal
  TGI: > 100 µM
SF-268 CNS
  TGI: > 100 µM
TK-10 renal
  TGI: > 100 µM
SF-295 CNS
  TGI: > 100 µM
HCT-116 colon
  TGI: > 100 µM
UACC-62 melanoma
  TGI: > 100 µM
OVCAR-4 ovarian
  TGI: > 100 µM
KM12 colon
  TGI: > 100 µM
BT-549 breast
  TGI: > 100 µM
HL-60(TB) leukemia
  TGI: > 100 µM
NCI-H226 lung
  TGI: > 100 µM
786-0 renal
  TGI: > 100 µM
MDA-N
  TGI: > 100 µM
COLO 205 colon
  TGI: > 100 µM
CAKI-1 renal
  TGI: > 100 µM
SR leukemia
  TGI: > 100 µM
UACC-257 melanoma
  TGI: > 100 µM
DU-145 prostate
  TGI: > 100 µM
T-47D breast
  TGI: > 100 µM
SK-OV-3 ovarian
  TGI: > 100 µM
HCC-2998 colon
  TGI: > 100 µM
U251 CNS
  TGI: > 100 µM
NCI-H460 lung
  TGI: > 100 µM
RPMI-8226 leukemia
  TGI: > 100 µM
MCF7 breast
  TGI: > 100 µM
OVCAR-8 ovarian
  TGI: > 100 µM
NCI/ADR-RES ovarian
  TGI: > 100 µM
